Measurements as given in patent US9975852B2, “Quinoline sulfonyl derivatives and uses thereof” (Health Sciences North Research Institute, priority 2013, dated 2018).
“Also recorded” adds a separate entry of the source.

Tests used:
[1] = Organ weight and histology (liver, spleen, kidney, lung) of ATH490 mice
Method: All values are presented as mean±S.E.M. Analyses were performed using GraphPad Prism software (GraphPad Software). Comparison between the groups was made by p value determination using one-way ANOVA. A p value of <0.05 was considered to be statistically significant. […] Each organ weight (%) is normalized with total body weight (BW).
The H&E stained slides were taken with a 20× objective using a Zeiss EPI-fluorescent microscope (bright field). […] At least 10 fields for each slide (one slide per mouse, and 3 mice per group) were examined.
Images were taken with a 10× objective using a Zeiss EPI-fluorescent microscope. […] Drug administration was carried out as described in Table IX and in the Materials and Methods section herein with respect to Animal Studies.
The images of the H&E stained renal tissues were taken with a Zeiss EPI-fluorescent (bright field) microscope using a 10× objective.

[2] = biological target: T1, Caspase-like proteasome activity in HeLa S3 cell lysates (Homo sapiens, UniProt P28072); assay: Proteasome activity assay, caspase-like; assay type: biochemical; conditions: read-out: Inhibition (IC50) Caspase-like
T1 construct: proteasomes were extracted in 0.5% NP40 buffer; endogenous in cells; host or cells: HeLa S3
Method: (§1) Exponentially growing HeLa S3 cells were plated on 96-well plates. After overnight incubation, the cells were treated with different concentrations of drugs for 6 hours or left untreated (control). At the end of 6 hours, proteasomes were extracted in 0.5% NP40 buffer, and equal amounts of samples were incubated with 25 μM of fluorogenic substrates purchased from Boston Biochem (Cambridge Mass.). (LRR-specific for trypsin-like activity, LLE-specific for caspase-like activity and SUVY-specific for chymotrypsin like activity) in black-bottom 96-well plates at 37° C. Fluorescence was monitored every 5 min at the wavelength of 360 nm (excitation) and 480 nm (emission). Chymotrypsin activity was also determined by a kit-based method (similar to described above) purchased from Caymen Biochem (Ann Arbor, Mich.), using a fluorogenic substrate specific for chymotrypsin activity.
(§2) Analysis of proteasome activity in HeLa S3 cell lysates treated with various compounds (FIG. 10). VR-23 inhibits proteasome activity. 20S proteasome activity was inhibited by 1 μM VR-23. MG132 and EGCG, known proteasome inhibitors, were used as positive controls. The PC positive control is cell lysates prepared from Jurkat cells with a high proteasome activity. “Asynchr” denote asynchronous HeLa S3 cells grown in the absence of VR-23.

[3] = biological target: T2, Chymotrypsin-like proteasome activity in HeLa S3 cell lysates (Homo sapiens, UniProt P28074); assay: Proteasome activity assay, chymotrypsin-like; assay type: biochemical; conditions: read-out: Inhibition (IC50) Chymotrypsin-like
T2 construct: proteasomes were extracted in 0.5% NP40 buffer; endogenous in cells; host or cells: HeLa S3
Method: as §1, §2

[4] = tested on: MDA-MB231 human metastatic breast cancer cells; assay: Xenograft antitumor activity, ATH490 mice engrafted with MDA-MB231; assay type: in vivo
Method: Five-week-old female CD-1 and ATH490 (strain code 490) athymic nude mice were purchased from Charles River (Quebec, Canada). The MDA-MB231 human metastatic breast cancer cells were obtained from the American Tissue Culture Collection (ATCC, Manassas, Va., USA). Cells were maintained under humidified condition at 37° C. and 5% CO2 in DMEM high glucose medium (ATCC) supplemented with 10% fetal bovine serum and antibiotics. All animal experiments, including animal handling, care, treatment and endpoint determination, were reviewed and approved by the Laurentian University Animal Care Committee (ACC) and carried out at Laurentian University Animal Care facility (Sudbury, Ontario, Canada)
To determine anti-tumor activity of VR-23 in an animal model, a xenograft model of human breast cancer cells in athymic nude mice was established. Exponentially growing MDA-MB231 cells were harvested and counted for inoculation into mice. Each mouse was subcutaneously injected at the flank with 10×10^6 cells in 0.2 ml ice cold 1×PBS. When tumor size reached 4-5 mm in diameter (n=4-5 per group), mice were randomly assigned into five (or more) groups.

20S proteasome = 20S proteasome activity in HeLa S3 cell lysates; assay type: biochemical; conditions: 1 μM VR-23
Method: as §1, §2

MCF7 = assay: SRB antiproliferative assay, MCF7; assay type: cell-based, human; conditions: Homo sapiens
In short: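 Cells (5,000-10,000 per well) exposed to seven drug concentrations for 48 h, then TCA-fixed and stained with 0.4% SRB. Growth computed as (Ti−Tz)/(C−Tz)×100 against time-zero and untreated controls. GI50 taken from variable-slope sigmoidal fit.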

[5] = VR-23 30 mg/kg, paclitaxel 20 mg/kg

O=[N+]([O-])c1ccc(S(=O)(=O)N2CCN(c3ccnc4cc(Cl)ccc34)CC2)c([N+](=O)[O-])c1 [Compound 1, 7-Chloro-4-(4-(2,4-dinitrophenylsulfonyl)piperazin-1-yl)quinoline]
Microscopic Changes (liver) ([1]; ATH490 mice, VR-23, 30 mg/week, Paclitaxel, 20 mg/week): Largely (>95% of cases) normal | Effects on vital organs by their weights ([1]; VR-23 30 mg/kg, 29 days post-treatment): did not cause any notable ill effects on vital organs | Mitotic index in the liver [1, 5]: did not cause an increase in mitotic index | Spleen histology (H&E) [1, 5]: did not cause any notable toxicity to the spleen | Kidney histology (H&E), nephrotoxicity ([1]; VR-23 30 mg/kg, paclitaxel 20 mg/kg, four weeks): did not cause any notable toxicity to the kidney | IC50 [2]: 3000 nM | IC50 [3]: 100 nM | Decrease of tumor size compared to sham-treated control ([4]; VR-23 30 mg/kg twice per week i.p., three weeks): 4.6 fold | Tumor size D0 ([4]; day 0, dosing as in Table IX B): 46.51 ± 2.82 | Tumor size D7 ([4]; day 7 post-treatment, dosing as in Table IX B): 52.74 ± 5.64 | Tumor size D15 ([4]; day 15 post-treatment, dosing as in Table IX B): 48.29 ± 17.30 | Tumor size D18 ([4]; day 18 post-treatment, dosing as in Table IX B): 42.41 ± 17.95 | Tumor size D22 ([4]; day 22 post-treatment, dosing as in Table IX B): 65.88 ± 25.92 | VEGF immunostaining of tumor ([4]; four weeks treatment): did not show any notable amount of VEGF | Angiogenesis and spread of tumor cells ([4]; four weeks treatment, H & E): inhibited angiogenesis and the spread of tumor cells to surrounding tissue/organs | Tumor cell proliferation (Ki-67, mitotic index) ([4]; tumor samples 15 and 29 days post-treatment): inhibited tumor cell proliferation | 20S proteasome activity (20S proteasome): inhibited; also recorded: almost completely inhibits | GI50 (MCF7; MCF7, 48 h, read-out: GI50 MCF7): 2320 ± 800 nM | IC50 (MCF7; MCF7, SRB): 2300 ± 800 nM
